Data: PubChem BioAssay AID248 (DTP/NCI, 2004)
Values joined by “and” are separate entries in the source; they are usually repeats but may differ in a detail not shown here. Equal values may be shown once. Toxic doses and inconclusive results are not listed. Cut-off read from the data, not from the text of the source: active = T/C of 150% or more; inactive = T/C below 125%.

System: L1210 leukemia ip in BDF1 mice, survival T/C
Assay: NCI In Vivo Anticancer Drug Screen. Data for tumor model L1210 Leukemia (intraperitoneal) in B6D2F1 (BDF1) mice
Conditions: endpoint: mean survival time, higher = longer survival
In short: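 In this screen, tumor-bearing mice given compound are compared to those given vehicle, and their survival values are reported as a treated-to-control quotient.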

[1] = dose: 100.0 mg/kg/injection, schedule: Q01DX009 (ip), vehicle: saline with Tween-80
[2] = dose: 100.0 mg/kg/injection, schedule: Q01DX001 (ip), vehicle: other
[3] = dose: 100.0 mg/kg/injection, schedule: Q01DX009 (ip), vehicle: Klucel (hydroxypropylcellulose) (HPC)
[4] = dose: 100.0 mg/kg/injection, schedule: Q04DX003 (ip), vehicle: Klucel (hydroxypropylcellulose) (HPC)
[5] = dose: 200.0 mg/kg/injection, schedule: Q01DX001 (ip), vehicle: other
[6] = dose: 200.0 mg/kg/injection, schedule: Q01DX009 (ip), vehicle: Klucel (hydroxypropylcellulose) (HPC)
[7] = dose: 200.0 mg/kg/injection, schedule: Q04DX003 (ip), vehicle: Klucel (hydroxypropylcellulose) (HPC)
[8] = dose: 400.0 mg/kg/injection, schedule: Q01DX001 (ip), vehicle: other
[9] = dose: 400.0 mg/kg/injection, schedule: Q04DX003 (ip), vehicle: Klucel (hydroxypropylcellulose) (HPC)
[10] = dose: 100.0 mg/kg/injection, schedule: Q01DX009 (ip), vehicle: saline
[11] = dose: 100.0 mg/kg/injection, schedule: Q04DX003 (ip), vehicle: saline
[12] = dose: 200.0 mg/kg/injection, schedule: Q04DX003 (ip), vehicle: saline
[13] = dose: 100.0 mg/kg/injection, schedule: Q01DX001 (ip), vehicle: Klucel (hydroxypropylcellulose) (HPC)
[14] = dose: 200.0 mg/kg/injection, schedule: Q01DX001 (ip), vehicle: Klucel (hydroxypropylcellulose) (HPC)
[15] = dose: 400.0 mg/kg/injection, schedule: Q01DX001 (ip), vehicle: Klucel (hydroxypropylcellulose) (HPC)
[16] = dose: 400.0 mg/kg/injection, schedule: Q04DX003 (ip), vehicle: saline
[17] = dose: 100.0 mg/kg/injection, schedule: Q04DX003 (ip), vehicle: saline with Tween-80
[18] = dose: 200.0 mg/kg/injection, schedule: Q01DX009 (ip), vehicle: saline with Tween-80
[19] = dose: 200.0 mg/kg/injection, schedule: Q04DX003 (ip), vehicle: saline with Tween-80
[20] = dose: 400.0 mg/kg/injection, schedule: Q04DX003 (ip), vehicle: saline with Tween-80
[21] = dose: 100.0 mg/kg/injection, schedule: Q01DX001 (ip), vehicle: saline
[22] = dose: 200.0 mg/kg/injection, schedule: Q01DX001 (ip), vehicle: saline
[23] = dose: 400.0 mg/kg/injection, schedule: Q01DX001 (ip), vehicle: saline

Measured: T/C

Clc1nnc(-c2ccccc2)c(-c2ccccc2)n1
inactive: dose: 25.0 mg/kg/injection, schedule: Q01DX009 (ip), vehicle: saline with Tween-80 95 % of control | dose: 50.0 mg/kg/injection, schedule: Q01DX009 (ip), vehicle: saline with Tween-80 95 % of control | [1] 97 % of control

Cc1ccc(/C=N/N=C(N)N)cc1
inactive: dose: 15.0 mg/kg/injection, schedule: Q01DX Z (ip), vehicle: saline 104 % of control | dose: 30.0 mg/kg/injection, schedule: Q01DX Z (ip), vehicle: saline 98 % of control | dose: 30.0 mg/kg/injection, schedule: Q01DX Z (oral), vehicle: saline 99 % of control | dose: 60.0 mg/kg/injection, schedule: Q01DX Z (ip), vehicle: saline 96 % of control | dose: 60.0 mg/kg/injection, schedule: Q01DX Z (oral), vehicle: saline 94 % of control | dose: 120.0 mg/kg/injection, schedule: Q01DX Z (oral), vehicle: saline 97 % of control | dose: 240.0 mg/kg/injection, schedule: Q01DX Z (oral), vehicle: saline 100 % of control

O=C(Nc1c(Br)cc2c(c1Br)Cc1cc(Br)ccc1-2)C(Cl)Cl
inactive: dose: 100.0 mg/kg/injection, schedule: Q01DX001 (ip), vehicle: carboxymethylcellulose (CMC) 98 % of control | dose: 200.0 mg/kg/injection, schedule: Q01DX001 (ip), vehicle: carboxymethylcellulose (CMC) 91 % of control | dose: 400.0 mg/kg/injection, schedule: Q01DX001 (ip), vehicle: carboxymethylcellulose (CMC) 98 % of control

CCCCCN(C)N=Nc1ccccc1C(N)=O
inactive: [2] 106 % of control | [3] 114 % of control | [4] 109 % of control | [5] 112 % of control | [6] 115 % of control | [7] 101 % of control | [8] 115 % of control | [9] 112 % of control

CC(CC(O)c1ccccc1)c1ccccc1 (stereo not given)
inactive: [10] 102 % of control | [4] 98 % of control | dose: 200.0 mg/kg/injection, schedule: Q01DX009 (ip), vehicle: saline 97 % of control | [7] 104 % of control | dose: 400.0 mg/kg/injection, schedule: Q01DX009 (ip), vehicle: saline 98 % of control | [9] 104 % of control

c1ccc2c(c1)[nH]c1nc3ccncc3nc12
inactive: [11] 103 % of control | [12] 94 % of control

Cc1cnc(SCc2ccccc2Cl)[nH]c1=O
inactive: dose: 25.0 mg/kg/injection, schedule: Q01DX Z (ip), vehicle: methylcellulose (MC) 90 % of control | dose: 50.0 mg/kg/injection, schedule: Q01DX Z (ip), vehicle: methylcellulose (MC) 100 % of control

O=C(c1ccccc1)C1CSS(=O)(=O)C1c1ccccc1 (stereo not given)
inactive: [13] 97 % of control | [14] 99 % of control | [15] 92 % of control

NC(CSCCc1ccc([N+](=O)[O-])cc1)C(=O)O (stereo not given)
inactive: [4] 105 % of control | [7] 96 % of control | [9] 93 % of control

CC(C)(C)C1CCC(S(=O)(=O)c2ccccc2)C(Cl)C1 (stereo not given)
inactive: [3] 102 % of control | [11] 102 % of control | [6] 104 % of control | [12] 96 % of control | dose: 400.0 mg/kg/injection, schedule: Q01DX009 (ip), vehicle: Klucel (hydroxypropylcellulose) (HPC) 104 % of control | [16] 93 % of control

COc1ccccc1N=Nc1c(O)n(-c2ccccc2C)c(=S)n(-c2ccc(C)cc2)c1=O
inactive: [13] 101 % of control | [14] 93 % of control

N#Cc1cccc[n+]1Cc1ccc([N+](=O)[O-])cc1
inactive: [17] 97 % of control

CC(C)C(NC(=O)OCc1ccccc1)C(=O)OCc1ccc([N+](=O)[O-])cc1 (stereo not given)
inactive: [2] 90 % of control | [5] 94 % of control | [8] 90 % of control

O=C(O)CC(NC(=O)OCc1ccccc1)c1ccc(Cl)cc1 (stereo not given)
inactive: dose: 100.0 mg/kg/injection, schedule: Q01DX001 (ip), vehicle: saline with Tween-80 90 % of control | [1] 100 % of control and 112 % of control | dose: 100.0 mg/kg/injection, schedule: Q04DX002 (ip), vehicle: saline with Tween-80 103 % of control | [17] 101 % of control | dose: 200.0 mg/kg/injection, schedule: Q01DX001 (ip), vehicle: saline with Tween-80 94 % of control | [18] 93 % of control and 102 % of control | dose: 200.0 mg/kg/injection, schedule: Q04DX002 (ip), vehicle: saline with Tween-80 103 % of control | [19] 93 % of control | dose: 400.0 mg/kg/injection, schedule: Q01DX001 (ip), vehicle: saline with Tween-80 101 % of control | dose: 400.0 mg/kg/injection, schedule: Q04DX002 (ip), vehicle: saline with Tween-80 92 % of control | [20] 101 % of control

Cc1ccnc(NC(=O)Nc2ccccc2F)c1
inactive: [21] 97 % of control and 106 % of control | [1] 92 % of control | [11] 95 % of control | [22] 101 % of control | [18] 96 % of control | [12] 101 % of control | [23] 97 % of control and 88 % of control | dose: 400.0 mg/kg/injection, schedule: Q01DX009 (ip), vehicle: saline with Tween-80 91 % of control | [16] 101 % of control

O=S1(=O)CC(O)C(Br)C1Br (stereo not given)
inactive: [13] 96 % of control | [14] 104 % of control | [15] 94 % of control

CNS(=O)(=O)CCC1NC(=O)NC1=O (stereo not given)
inactive: [17] 100 % of control | [19] 105 % of control | [20] 101 % of control

COCC1OC1(C(=O)c1ccccc1Cl)c1ccccc1Cl (stereo not given)
inactive: [21] 107 % of control | [22] 100 % of control | [23] 96 % of control

Cc1cc(O)ccc1C1=NCC(C)(C)S1
inactive: dose: 100.0 mg/kg/injection, schedule: Q04DX002 (ip), vehicle: saline 93 % of control | dose: 200.0 mg/kg/injection, schedule: Q04DX002 (ip), vehicle: saline 100 % of control | dose: 400.0 mg/kg/injection, schedule: Q04DX002 (ip), vehicle: saline 103 % of control

Cc1ccc(N(C)C(=O)c2ccccc2S)cc1
inactive: [21] 105 % of control | [22] 105 % of control | [23] 109 % of control

O=C(O)C1CCCN1C(=O)Cc1ccc2c(c1)OCO2 (stereo not given)
inactive: dose: 75.0 mg/kg/injection, schedule: Q01DX009 (ip), vehicle: Klucel (hydroxypropylcellulose) (HPC) 96 % of control | [13] 98 % of control | dose: 150.0 mg/kg/injection, schedule: Q01DX009 (ip), vehicle: Klucel (hydroxypropylcellulose) (HPC) 93 % of control | [14] 95 % of control | dose: 300.0 mg/kg/injection, schedule: Q01DX009 (ip), vehicle: Klucel (hydroxypropylcellulose) (HPC) 98 % of control | [15] 92 % of control

S=C(S)N1CCN(C(=S)S)CC1
inactive: dose: 25.0 mg/kg/injection, schedule: Q01DX009 (ip), vehicle: saline 108 % of control | dose: 50.0 mg/kg/injection, schedule: Q01DX009 (ip), vehicle: saline 103 % of control | [10] 92 % of control and 102 % of control | [11] 99 % of control | [12] 97 % of control
